Patent US20060014704A1, “Compounds and their preparation for the treatment of Alzheimer's disease by inhibiting beta-amyloid peptide production” (priority 2004, published 2006)
Entries after “also recorded” stand apart in the source; their conditions may differ. Read-outs that look alike come from different tables or passages of the source. Each block holds one compound with its values, some of them ahead of it.

Tests used:
[1] = test system: Aβ40 and Aβ42 production, CHO cells stably transfected with human APP695; experiment: Secreted Aβ40/Aβ42 ELISA in CHO cells expressing human APP (CHO-APP cells); format: cell-based, Chinese hamster; set-up: key to Aβ42-lowering activity: Aβ42-lowering activity (“Yes”); no profound effects (“No”); non-determined (“ND”); Ginsenosides that affected cell viability are indicated as “Cytotoxic.”; settings: for Aβ42-lowering activity: summary of Tables 1-3; for levels of Aβ42 / production of Aβ42: CHO cells expressing wild-type human APP, PPT/PT; for inhibitory effects on Aβ40 production / inhibitory effects on Aβ42 production: ginsenosides of unprocessed ginseng, 8 hours, FIG. 10 (50 μM)
Experimental: The CHO cells were treated with the indicated compounds (at 50 μg/ml) for 8 hrs. Aβ42 levels in the medium were measured by ELISA and normalized to intracellular full-length APP.
The potential effects of ginsenosides and their analogues in treating AD were examined. First, a number of ginsenosides were screened based on their effects on Aβ generation. The effects of various ginsenosides on Aβ (e.g., Aβ40 and Aβ42) production was initially accessed by incubating the Chinese hamster ovary (CHO) cells expressing human APP(CHO-APP cells) with each ginsenoside purified from unprocessed ginseng (known as “white ginseng”). These representative ginsenosides included Rb1, Rb2, Rc, Rd, Re, Re, Rg1 and Rg2 and differ in their side chains and sugar moieties.
After 8 hours of incubation, the media were collected and the levels of secreted Aβ40 and Aβ42 were determined by ELISA.

[2] = test system: Aβ40 and Aβ42 production, CHO-APP/PS1 cells; experiment: Secreted Aβ ELISA in CHO-APP/PS1 cells (wild-type PS1); format: cell-based, Chinese hamster; settings: 50 μM, 8 hrs, FIG. 11; for secretion of Aβ42: heat-processing derived ginsenosides
Experimental: The effects of Rg5 on the Aβ42 generation were much smaller as compared to Rgk351 and Rk1.
FIG. 10 depicts the effects of native ginsenosides on Aβ42 production. CHO cells stably transfected with human APP695 together with either wild-type (A, CHO-APP/PS1 cells) or ΔE9 FAD mutant (B, CHO-APP/ΔE9PS1 cells) forms of PS1 were used. Cells were treated with the indicated compounds (at 50 μM) for 8 hrs. Levels of secreted Aβ40 and Aβ42 in the medium were determined by ELISA and normalized to intracellular full-length APP. In CHO-APP/PS1 cells, average Aβ amounts in control samples were 320 pM for Aβ40 and 79 pM for Aβ42. The relative levels of Aβ and Aβ42 were normalized to values obtained from non-treated and vehicle-treated cells and are shown as % to control+s.d.). One of three representative experiments are shown.
CHO-APP/PS1 (A) and CHO-APP/ΔE9PS1 (B) cells were treated with the indicated compounds at 50 μM for 8 hrs and the levels of secreted Aβ40 and Aβ42 were determined as described in FIG. 1. […] The PS1-ΔE9 FAD mutation diminished the Aβ42 response to Rk1 treatment (B).

[3] = biological target: T1, γ-secretase cleavage of p75 neurotrophin receptor (p75-ICD) (Homo sapiens, UniProt P49768); experiment: Cell-free generation of p75-ICD from membrane fractions of 293 cells overexpressing p75-AE; format: biochemical
T1 construct: Membrane fractions isolated from 293 cells overexpressing either APP (A), Notch-AE (B) or p75-AE (C); endogenous in cells; host or cells: 293 cells (membrane fractions); only the substrates APP, Notch-ΔE and p75-ΔE are overexpressed
Experimental: (§1) Membrane fractions isolated from 293 cells overexpressing either APP (A), Notch-AE (B) or p75-AE (C) and incubated in the presence of indicated compounds: Compound E (CpdE, general γ-secretase inhibitor), Rgk351, Rk1 and sulindac sulfide (SS).

[4] = biological target: T2, γ-secretase cleavage of Notch1 (NICD) (Homo sapiens, UniProt P49768); experiment: Cell-free generation of NICD from membrane fractions of 293 cells overexpressing Notch-AE; format: biochemical
T2 construct: Membrane fractions isolated from 293 cells overexpressing either APP (A), Notch-AE (B) or p75-AE (C); endogenous in cells; host or cells: 293 cells (membrane fractions); only the substrates APP, Notch-ΔE and p75-ΔE are overexpressed
Experimental: as §1

[5] = biological target: T3, γ-secretase cleavage of APP (AICD) (Homo sapiens, UniProt P49768); experiment: Cell-free generation of AICD from membrane fractions of 293 cells overexpressing APP; format: biochemical
T3 construct: Membrane fractions isolated from 293 cells overexpressing either APP (A), Notch-AE (B) or p75-AE (C); endogenous in cells; host or cells: 293 cells (membrane fractions); only the substrates APP, Notch-ΔE and p75-ΔE are overexpressed
Experimental: as §1

[6] = test system: Aβ40 and Aβ42 generation, Neuro2a-SW cells; experiment: Aβ generation in Neuro2a cells expressing human Swedish mutant APP (Neuro2a-SW); format: cell-based, mouse; settings: FIG. 16; for levels of Aβ42 / production of Aβ42: Neuro2a-SW
Excerpt: FIG. 16 depicts the effects of two major metabolites of ginsenosides, including 20(S)-protopanaxatriol (PPT) and 20(S)-protopanaxadiol (PPD) on Aβ42 generation. 20(S)-panaxatriol (PT) and 20(S)-panaxadiol (PD) are the artificial derivatives of PPT and PPPD, respectively.
Ginsenosides are metabolized by human intestinal bacteria after oral administration of ginseng extract (Kobayashi K., et al., Metabolism of ginsenoside by human intestinal bacteria [II] Ginseng Review 1994; 18: 10-14; Hasegawa H., et al., Main ginseng saponin metabolites formed by intestinal bacteria. Planta Med. 1996; 62: 453-457.). Therefore, the effects of two major metabolites of ginsenosides, including 20(S)-protopanaxatriol (PPT) and 20(S)-protopanaxadiol (PPD) on Aβ42 generation were tested. 20(S)-panaxatriol (PT) and 20(S)-panaxadiol (PD) are the artificial derivatives of PPT and PPPD, respectively.

[7] = test system: Aβ42 production in mammalian cells; settings: Tae-Wan Kim et al.; cited from earlier work
[8] = biological target: γ-secretase (Homo sapiens, UniProt P49768); experiment: Cell-free γ-secretase assay (CHAPSO-solubilized membrane fractions, recombinant substrates, Aβ ELISA); format: biochemical; settings: cell-free γ-secretase assay, FIG. 15 (100 μM in A)
Experimental: (A) CHAPSO-solubilized membrane fractions were incubated with recombinant γ-secretase substrates together with the indicated compounds (at 100 μM) and the levels of Aβ42 and Aβ40 were determined by ELISA as described (27-29). (B) Dose-response of Aβ40 and Aβ42-lowering activity of Rk1 and (20S)Rg3 in a cell-free γ-secretase assay.
Next, the inhibitory effects of Rk1 and (20S)Rg3 on Aβ generation in an in vitro γ-secretase assay was studied. […] In contrast, naproxen, an NSAID without Aβ42-lowering activity, had no effects on Aβ42 production (FIG. 15A).

SMILES: CC(C)=CCCC(C)(O)C1CCC2(C)C1C(O)CC1C3(C)CCC(OC4OC(CO)C(O)C(O)C4OC4OC(CO)C(O)C(O)C4O)C(C)(C)C3CCC12C [(20R)Rg3]
generation of Aβ42 (Aβ42 levels in the medium, ELISA, normalized to intracellular full-length APP) ([1]; 50 μg/ml, 8 hrs, FIG. 4): reduce the generation of Aβ42
Aβ42-lowering activity [1]: Yes
potency of Aβ42-reducing activity (rank) [2]: Rk1>/=(20S)Rg3>Rg5>(20R)Rg3
secretion of Aβ42 [2]: not affected

SMILES: C[C@H](NC(=O)Cc1cc(F)cc(F)c1)C(=O)N[C@H]1N=C(c2ccccc2)c2ccccc2N(C)C1=O [Compound E]
cell-free generation of p75-ICD [3]: efficiently inhibited
cell-free generation of p75-ICD ([3]; listed as Cpd.E): Very low amounts
cell-free generation of NICD [4]: efficiently inhibited
cell-free generation of NICD ([4]; listed as Cpd.E): Very low amounts
cell-free generation of AICD [5]: efficiently inhibited
cell-free generation of AICD ([5]; listed as Cpd.E): Very low amounts

SMILES: CC1(C)CCC[C@](C)([C@H]2CC[C@]3(C)[C@@H]2[C@H](O)C[C@@H]2[C@@]4(C)CC[C@H](O)C(C)(C)[C@@H]4CC[C@]23C)O1 [PD, 20(S)-panaxadiol]
inhibitory effects on Aβ40 generation [6]: did not confer any inhibitory effects
inhibitory effects on Aβ42 generation [6]: did not confer any inhibitory effects

SMILES: CC(C)=CCC[C@](C)(O)[C@H]1CC[C@]2(C)[C@@H]1[C@H](O)C[C@@H]1[C@@]3(C)CC[C@H](O)C(C)(C)[C@@H]3CC[C@]12C [PPD, 20(S)-protopanaxadiol]
Aβ42-lowering activity [1]: No
inhibitory effects on Aβ40 generation [6]: did not confer any inhibitory effects
inhibitory effects on Aβ42 generation [6]: did not confer any inhibitory effects

SMILES: CC(C)=CCC[C@](C)(O)[C@H]1CC[C@]2(C)[C@@H]1[C@H](O)C[C@@H]1[C@@]3(C)CC[C@H](O)C(C)(C)[C@@H]3[C@@H](O)C[C@]12C [PPT, 20(S)-protopanaxatriol]
levels of Aβ42 [1]: without affecting
production of Aβ42 [1]: reduced the production of Aβ42
Aβ42-lowering activity [1]: Yes
levels of Aβ42 [6]: without affecting
production of Aβ42 [6]: reduced the production of Aβ42

SMILES: CC1(C)CCC[C@](C)([C@H]2CC[C@]3(C)[C@@H]2[C@H](O)C[C@@H]2[C@@]4(C)CC[C@H](O)C(C)(C)[C@@H]4[C@@H](O)C[C@]23C)O1 [PT, 20(S)-panaxatriol]
levels of Aβ42 [1]: without affecting
production of Aβ42 [1]: reduced the production of Aβ42
levels of Aβ42 [6]: without affecting
production of Aβ42 [6]: reduced the production of Aβ42

SMILES: CC(C)=CCC[C@](C)(O[C@@H]1O[C@H](CO[C@@H]2O[C@H](CO)[C@@H](O)[C@H](O)[C@H]2O)[C@@H](O)[C@H](O)[C@H]1O)[C@H]1CC[C@]2(C)[C@@H]1[C@H](O)C[C@@H]1[C@@]3(C)CC[C@H](O[C@@H]4O[C@H](CO)[C@@H](O)[C@H](O)[C@H]4O[C@@H]4O[C@H](CO)[C@@H](O)[C@H](O)[C@H]4O)C(C)(C)[C@@H]3CC[C@]12C [Rb1]
inhibitory effects on Aβ40 production [1]: None
inhibitory effects on Aβ42 production [1]: None
Aβ42-lowering activity [1]: No

SMILES: CC(C)=CCC[C@](C)(O[C@@H]1O[C@H](CO[C@@H]2OC[C@H](O)[C@H](O)[C@H]2O)[C@@H](O)[C@H](O)[C@H]1O)[C@H]1CC[C@]2(C)[C@@H]1[C@H](O)C[C@@H]1[C@@]3(C)CC[C@H](O[C@@H]4O[C@H](CO)[C@@H](O)[C@H](O)[C@H]4O[C@@H]4O[C@H](CO)[C@@H](O)[C@H](O)[C@H]4O)C(C)(C)[C@@H]3CC[C@]12C [Rb2]
inhibitory effects on Aβ40 production [1]: None
inhibitory effects on Aβ42 production [1]: None
Aβ42-lowering activity [1]: No

SMILES: CC(C)=CCC[C@](C)(O[C@@H]1O[C@H](CO[C@@H]2OC[C@@H](O)[C@H](O)[C@H]2O)[C@@H](O)[C@H](O)[C@H]1O)[C@H]1CC[C@]2(C)[C@@H]1[C@H](O)C[C@@H]1[C@@]3(C)CC[C@H](O[C@@H]4O[C@H](CO)[C@@H](O)[C@H](O)[C@H]4O[C@@H]4O[C@H](CO)[C@@H](O)[C@H](O)[C@H]4O)C(C)(C)[C@@H]3CC[C@]12C [Rb3]
Aβ42-lowering activity [1]: No

SMILES: CC(C)=CCC[C@](C)(O[C@@H]1O[C@H](CO)[C@@H](O)[C@H](O)[C@H]1O)[C@H]1CC[C@]2(C)[C@@H]1[C@H](O)C[C@@H]1[C@@]3(C)CC[C@H](O)C(C)(C)[C@@H]3[C@@H](O[C@@H]3O[C@H](CO)[C@@H](O)[C@H](O)[C@H]3O)C[C@]12C [Rg1]
inhibitory effects on Aβ40 production [1]: None
inhibitory effects on Aβ42 production [1]: None
Aβ42-lowering activity [1]: No
amyloid-reducing activity in vitro [7]: no amyloid-reducing activity in vitro

SMILES: CC(C)=CCC[C@](C)(O)[C@H]1CC[C@]2(C)[C@@H]1[C@H](O)C[C@@H]1[C@@]3(C)CC[C@H](O)C(C)(C)[C@@H]3[C@@H](O[C@@H]3O[C@H](CO)[C@@H](O)[C@H](O)[C@H]3O[C@@H]3O[C@@H](C)[C@H](O)[C@@H](O)[C@H]3O)C[C@]12C [Rg2]
inhibitory effects on Aβ40 production [1]: None
inhibitory effects on Aβ42 production [1]: None
Aβ42-lowering activity [1]: No

SMILES: CC(C)=CCC[C@](C)(O)[C@H]1CC[C@]2(C)[C@@H]1[C@H](O)C[C@@H]1[C@@]3(C)CC[C@H](O)C(C)(C)[C@@H]3[C@@H](O[C@@H]3O[C@H](CO)[C@@H](O)[C@H](O)[C@H]3O)C[C@]12C [Rh1]
Aβ42-lowering activity [1]: No
secretion of Aβ42 [2]: not significant; also recorded: not affected

SMILES: CC(C)=CC/C=C(\C)[C@H]1CC[C@]2(C)[C@@H]1[C@H](O)C[C@@H]1[C@@]3(C)CC[C@H](O)C(C)(C)[C@@H]3[C@@H](O[C@@H]3O[C@H](CO)[C@@H](O)[C@H](O)[C@H]3O)C[C@]12C [Rh4]
Aβ42-lowering activity [1]: No

SMILES: C=C(CCC=C(C)C)[C@H]1CC[C@]2(C)[C@@H]1[C@H](O)C[C@@H]1[C@@]3(C)CC[C@H](O)C(C)(C)[C@@H]3[C@@H](O[C@@H]3O[C@H](CO)[C@@H](O)[C@H](O)[C@H]3O)C[C@]12C [Rk3]
Aβ42-lowering activity [1]: No

Aβ42 generation in vitro [8]: no effects
SMILES: COc1ccc2cc([C@H](C)C(=O)O)ccc2c1 [naproxen, reference compound]

Aβ42 generation in vitro [8]: potently inhibited
cell-free generation of AICD ([5]; listed as SS): abundantly produced
cell-free generation of AICD ([5]; listed as sulinac sulfide): did not affect
SMILES: CSc1ccc(/C=C2/C(C)=C(CC(=O)O)c3cc(F)ccc32)cc1 [sulindac sulfide]
Aβ40 production ([1]; overnight treatment, FIG. 12B): slightly affected
cell-free generation of p75-ICD ([3]; listed as SS): abundantly produced
cell-free generation of p75-ICD ([3]; listed as sulinac sulfide): did not affect
cell-free generation of NICD ([4]; listed as SS): abundantly produced
cell-free generation of NICD ([4]; listed as sulinac sulfide): did not affect
